pKi: −log10 of the molar value. Read-outs that look alike come from different tables or passages of the source.
Tests used:
5-HT2A receptor = 5-HT2A receptor (Homo sapiens (Human), UniProt P28223); assay: Radioligand binding assay ([3H]-ketanserin) on membranes of HEK293 EBNA cells expressing human 5-HT2A receptor
Experimental: HEK293 EBNA cells were transiently transfected with expression plasmids encoding for the human D2 or D3 or for the human 5-HT2A receptor, respectively. The cells were harvested 48 h post-transfection, washed three times with cold PBS and stored at −80° C. prior to use. The pellet was suspended in cold 50 mM Tris-HCl buffer containing 10 mM EDTA (pH 7.4) and was homogenized with a Polytron (Kinematica AG, Basel, Switzerland) for 20-30 sec at 12.000 rpm. After centrifugation at 48.000×g for 30 min at 4° C., the pellet was resuspended in cold 10 mM Tris-HCl buffer containing 0.1 mM EDTA (pH 7.4), homogenized, and centrifuged as above. This pellet was further resuspended in a smaller volume of ice cold 10 mM Tris-HCl buffer containing 0.1 mM EDTA (pH 7.4) and homogenized with a Polytron for 20-30 sec at 12.000 rpm. The protein content of this homogenate was determined with the Bio-Rad (Bradford) Protein Assay (Biorad Laboratories GmbH, München, Germany) according to the instructions of the manufacturer using gamma globulin as the standard. This homogenate was stored at −80° C. in aliquots and thawed immediately prior to use.
Aliquots of membrane preparations were thawed at RT, resuspended in assay buffer (D2, D3: 50 mM Tris-HCl, 120 mM NaCl, 5 mM MgCl2, 1 mM EDTA, 5 mM KCl, 1.5 mM CaCl2, pH=7.4; 5-HT2A: 50 mM Tris-HCl, 10 mM MgCl2, 1 mM EGTA, pH=7.4), homogenized with a Polytron for 20-30 sec at 12.000 rpm and adjusted to a final concentration of approximately 7.5 μg protein/well (D2, D3) and 15 μg protein/well (5-HT2A), respectively.
The nonspecific binding was determined with equally composed reaction mixtures in the presence of 10 μM unlabelled spiperone. Per well 45 μl of Microscint 40 (Perkin Elmer, Schwerzenbach, Switzerland) was added, plates for sealed, shaken for 20 min and counted for 3 min on a Topcount Microplate Scintillation Counter (Can berra Packard SA, Ziirich, Switzerland) with quenching correction.
The CPM value for each duplicate of a concentration of competing compound was averaged (y1), then the % specific binding was calculated according to the equation (((y1−non-specific)/(total binding−non-specific))×100). Graphs were plotted with the % specific binding using XLfit, a curve fitting program that iteratively plots the data using Levenberg-Marquardt algorithm. The single site competition analysis equation used was y=A+((B−A)/(1+((x/C)D))), where y is the % specific binding, A is the minimum y, B is the maximum y, C is the IC50, x is the log 10 of the concentration of the competing compound and D is the slope of the curve (the Hill Coefficient). […] The affinity constant (K) was calculated using the Cheng-Prusoff equation Ki=(IC50/1+([L]/Kd), where [L] is the concentration of radioligand and Kd is the dissociation constant of the radioligand at the receptor as determined by the saturation isotherm.

D3 receptor = D3 receptor (Homo sapiens (Human), UniProt P35462); assay: Radioligand binding assay ([3H]-spiperone) on membranes of HEK293 EBNA cells expressing human D3 receptor
D2 receptor = D2 receptor (Homo sapiens (Human), UniProt P14416); assay: Radioligand binding assay ([3H]-spiperone) on membranes of HEK293 EBNA cells expressing human D2 receptor; conditions: human receptor in HEK293 EBNA cells; 0.7 nM [3H]-spiperone
Sequence of D2 receptor (P14416 whole entry): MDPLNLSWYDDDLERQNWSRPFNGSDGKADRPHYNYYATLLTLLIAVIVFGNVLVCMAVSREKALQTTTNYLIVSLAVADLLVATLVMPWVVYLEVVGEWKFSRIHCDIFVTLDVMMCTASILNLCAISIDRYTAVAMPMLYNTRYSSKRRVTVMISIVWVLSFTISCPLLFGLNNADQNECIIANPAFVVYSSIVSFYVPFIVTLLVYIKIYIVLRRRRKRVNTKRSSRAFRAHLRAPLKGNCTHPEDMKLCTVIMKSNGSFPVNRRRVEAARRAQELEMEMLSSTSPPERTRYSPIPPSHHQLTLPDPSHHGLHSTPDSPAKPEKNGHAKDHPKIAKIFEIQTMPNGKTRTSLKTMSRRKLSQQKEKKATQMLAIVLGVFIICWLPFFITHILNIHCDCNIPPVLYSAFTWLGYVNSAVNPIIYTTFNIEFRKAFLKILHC

[1] = read-out: 5HT2A Ki, human receptor in HEK293 EBNA cells, 1.1 nM [3H]-ketanserin
[2] = read-out: D3 Ki, human receptor in HEK293 EBNA cells, 0.5 nM [3H]-spiperone

Sequence of D3 receptor (P35462 whole entry): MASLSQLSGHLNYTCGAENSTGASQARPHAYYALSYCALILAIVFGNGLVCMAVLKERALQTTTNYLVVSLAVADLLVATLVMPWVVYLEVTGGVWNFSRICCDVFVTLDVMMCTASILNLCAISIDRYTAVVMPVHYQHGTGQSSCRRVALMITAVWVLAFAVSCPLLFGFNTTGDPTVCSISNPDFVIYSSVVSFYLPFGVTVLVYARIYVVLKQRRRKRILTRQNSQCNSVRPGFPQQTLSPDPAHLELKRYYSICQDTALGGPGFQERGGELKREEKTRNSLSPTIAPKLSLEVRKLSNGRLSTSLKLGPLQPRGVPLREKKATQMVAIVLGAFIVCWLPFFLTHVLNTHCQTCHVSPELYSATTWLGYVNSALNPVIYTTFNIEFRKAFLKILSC

Structure (SMILES)	pKi (5-HT2A receptor)	pKi (D3 receptor)	pKi (D2 receptor)	pKi (5-HT2A receptor; [1])	pKi (D3 receptor; [2])	pKi (5-HT2A receptor; read-out: 5HT2A Ki)
O=C(C[C@H]1COCCO1)N[C@H]1CC[C@H](CCN2CCC(c3cccc4c3OCO4)CC2)CC1 (single isomer, unassigned) [Example 4, Trans-N-{4-[2-(4-Benzo[1,3]dioxol-4-yl-piperidin-1-yl)-ethyl]-cyclohexyl}-2-(S) or (R)-[1,4]dioxan-2-yl-acetamide]	7.93	8.01				
O=C(C[C@@H]1COCCO1)N[C@H]1CC[C@H](CCN2CCC(c3cccc4c3OCO4)CC2)CC1 (single isomer, unassigned) [Example 5, Trans-N-{4-[2-(4-Benzo[1,3]dioxol-4-yl-piperidin-1-yl)-ethyl]-cyclohexyl}-2-(R) or (S)-[1,4]dioxan-2-yl-acetamide]	7.77	8.02				
CC(=O)N[C@H]1CC[C@H](CCN2CCC(c3cccc4c3OCO4)CC2)CC1 [Example 1, Trans-N-{4-[2-(4-Benzo[1,3]dioxol-4-yl-piperidin-1-yl)-ethyl]-cyclohexyl}-acetamide]			6.60	7.62	8.30	
COCCC(=O)N[C@H]1CC[C@H](CCN2CCC(c3cccc4c3OCO4)CC2)CC1 [Example 2, Trans-N-{4-[2-(4-Benzo[1,3]dioxol-4-yl-piperidin-1-yl)-ethyl]-cyclohexyl}-3-methoxy-propionamide]			6.37	7.42	8.24	
O=C(CC1COCCO1)N[C@H]1CC[C@H](CCN2CCC(c3cccc4c3OCO4)CC2)CC1 (stereo partly drawn) [Example 3, Trans-N-{4-[2-(4-Benzo[1,3]dioxol-4-yl-piperidin-1-yl)-ethyl]-cyclohexyl}-2-[1,4]dioxan-2-yl-acetamide]					8.05	7.86
O=C(CC1CCCO1)N[C@H]1CC[C@H](CCN2CCC(c3cccc4c3OCO4)CC2)CC1 (stereo partly drawn) [Example 6, Trans-N-{4-[2-(4-Benzo[1,3]dioxol-4-yl-piperidin-1-yl)-ethyl]-cyclohexyl}-2-(tetrahydro-furan-2-yl)-acetamide]			6.41		8.04	7.68
CCC(=O)N[C@H]1CC[C@H](CCN2CCC(c3cccc4c3OCO4)CC2)CC1 [Example 7, Trans-N-{4-[2-(4-Benzo[1,3]dioxol-4-yl-piperidin-1-yl)-ethyl]-cyclohexyl}-propionamide]			6.69	7.78	8.38	
O=C(CC1CC1)N[C@H]1CC[C@H](CCN2CCC(c3cccc4c3OCO4)CC2)CC1 [Example 8, Trans-N-{4-[2-(4-Benzo[1,3]dioxol-4-yl-piperidin-1-yl)-ethyl]-cyclohexyl}-2-cyclopropyl-acetamide]			6.52	7.75	8.60	
O=C(N[C@H]1CC[C@H](CCN2CCC(c3cccc4c3OCO4)CC2)CC1)c1ccccc1 [Example 9, Trans-N-{4-[2-(4-Benzo[1,3]dioxol-4-yl-piperidin-1-yl)-ethyl]-cyclohexyl}-benzamide]			6.92		8.44	8.29
O=C(CC(F)(F)F)N[C@H]1CC[C@H](CCN2CCC(c3cccc4c3OCO4)CC2)CC1 [Example 10, Trans-N-{4-[2-(4-Benzo[1,3]dioxol-4-yl-piperidin-1-yl)-ethyl]-cyclohexyl}-3,3,3-trifluoro-propionamide]			6.68	7.74	8.40	
O=C(CCC(F)(F)F)N[C@H]1CC[C@H](CCN2CCC(c3cccc4c3OCO4)CC2)CC1 [Example 11, Trans-N-{4-[2-(4-Benzo[1,3]dioxol-4-yl-piperidin-1-yl)-ethyl]-cyclohexyl}-4,4,4-trifluoro-butyramide]			6.39	7.50	8.11	
O=C(N[C@H]1CC[C@H](CCN2CCC(c3cccc4c3OCO4)CC2)CC1)C(O)C(F)(F)F (stereo partly drawn) [Example 12, Trans-N-{4-[2-(4-Benzo[1,3]dioxol-4-yl-piperidin-1-yl)-ethyl]-cyclohexyl}-3,3,3-trifluoro-2-hydroxy-propionamide]			6.63		8.07	7.85
COCC(=O)N[C@H]1CC[C@H](CCN2CCC(c3cccc4c3OCO4)CC2)CC1 [Example 13, Trans-N-{4-[2-(4-Benzo[1,3]dioxol-4-yl-piperidin-1-yl)-ethyl]-cyclohexyl}-2-methoxy-acetamide]			6.29		7.75	7.84
N#Cc1ccc(C(=O)N[C@H]2CC[C@H](CCN3CCC(c4cccc5c4OCO5)CC3)CC2)cc1 [Example 14, Trans-N-{4-[2-(4-Benzo[1,3]dioxol-4-yl-piperidin-1-yl)-ethyl]-cyclohexyl}-4-cyano-benzamide]			6.82	8.04	8.11	
Cc1ccc(C(=O)N[C@H]2CC[C@H](CCN3CCC(c4cccc5c4OCO5)CC3)CC2)cn1 [Example 15, Trans-N-{4-[2-(4-Benzo[1,3]dioxol-4-yl-piperidin-1-yl)-ethyl]-cyclohexyl}-6-methyl-nicotinamide]			6.87	7.94	7.93	
O=C(C[C@H]1CCCO1)N[C@H]1CC[C@H](CCN2CCC(c3cccc4c3OCO4)CC2)CC1 [Example 16, Trans-N-{4-[2-(4-Benzo[1,3]dioxol-4-yl-piperidin-1-yl)-ethyl]-cyclohexyl}-2-(R)-tetrahydro-furan-2-yl-acetamide]			6.64		7.97	7.55
O=C(C[C@@H]1CCCO1)N[C@H]1CC[C@H](CCN2CCC(c3cccc4c3OCO4)CC2)CC1 [Example 17, Trans-N-{4-[2-(4-Benzo[1,3]dioxol-4-yl-piperidin-1-yl)-ethyl]-cyclohexyl}-2-(S)-tetrahydro-furan-2-yl-acetamide]			6.27		8.19	7.47
COC(=O)N[C@H]1CC[C@H](CCN2CCC(c3cccc4c3OCO4)CC2)CC1 [Example 18, Trans-{4-[2-(4-Benzo[1,3]dioxol-4-yl-piperidin-1-yl)-ethyl]-cyclohexyl}-carbamic acid methyl ester]			6.88		8.49	7.66
Cc1cc(CC(=O)N[C@H]2CC[C@H](CCN3CCC(c4cccc5c4OCO5)CC3)CC2)on1 [Example 19, Trans-N-{4-[2-(4-Benzo[1,3]dioxol-4-yl-piperidin-1-yl)-ethyl]-cyclohexyl}-2-(3-methyl-isoxazol-5-yl)-acetamide]			6.29	7.70	8.92	
N#CCC(=O)N[C@H]1CC[C@H](CCN2CCC(c3cccc4c3OCO4)CC2)CC1 [Example 20, Trans-N-{-4-[2-(4-Benzo[1,3]dioxol-4-yl-piperidin-1-yl)-ethyl]-cyclohexyl}-2-cyano-acetamide]			6.69		8.51	7.65
O=C(CC1(O)CCCCC1)N[C@H]1CC[C@H](CCN2CCC(c3cccc4c3OCO4)CC2)CC1 [Example 21, Trans-N-{4-[2-(4-Benzo[1,3]dioxol-4-yl-piperidin-1-yl)-ethyl]-cyclohexyl}-2-(1-hydroxy-cyclohexyl)-acetamide]			6.44		7.98	7.80
O=C(CC1CCCCO1)N[C@H]1CC[C@H](CCN2CCC(c3cccc4c3OCO4)CC2)CC1 (stereo partly drawn) [Example 22, Trans-N-{4-[2-(4-Benzo[1,3]dioxol-4-yl-piperidin-1-yl)-ethyl]-cyclohexyl}-2-(tetrahydro-pyran-2-yl)-acetamide]			6.28		8.03	7.81
